The results in this text go back to US9204645B2, “Insecticidal aromatic amides” (BAYER INTELLECTUAL PROPERTY GMBH, priority 2011, dated 2015).

Like-named read-outs stand apart in the source and are kept apart here.

For data set [1], the system named is green peach aphid (Myzus persicae). Description: Myzus spray test (MYZUPE). It counts as in vivo. Conditions: for efficacy compared to similar compounds of the prior art: MYZUPE spray test; for inhibition at 100 g/ha / inhibition at 20 g/ha / inhibition at 500 g/ha: Myzus persicae, 144 h; for inhibition at 100 g/ha / inhibition at 20 g/ha: read-out: % Activity. As for the experimental part: Myzus—Spray Test (MYZUPE)
(§1) • Solvents: 78.0 parts by weight of acetone • 1.5 parts by weight of dimethylformamide • Emulsifier: 0.5 part by weight of alkylaryl polyglycol ether
(§2) To produce a suitable preparation of active compound, 1 part by weight of active compound is mixed with the stated amounts of solvents and emulsifier, and the concentrate is diluted with emulsifier-containing water to the desired concentration.
Discs of Chinese cabbage leaves (Brassica pekinensis) infested by all stages of the green peach aphid (Myzus persicae) are sprayed with an active compound preparation of the desired concentration.
After the desired period of time, the effect in % is determined. 100% here means that all of the aphids have been killed; 0% means that no aphids have been killed.

The subject of data set [2] is larvae of the mustard beetle (Phaedon cochleariae). The data set can be described thus: Phaedon cochleariae spray test (PHAECO). The data set is classed as in vivo. To be noted: for efficacy compared to similar compounds of the prior art: PHAECO spray test; for inhibition at 20 g/ha / inhibition at 100 g/ha: Phaedon cochleariae, 168 h; for inhibition at 20 g/ha: read-out: % Activity. As for the experimental part:
Phaedon Cochleariae—Spray Test (PHAECO)
as §1, §2
After the desired period of time, the effect in % is determined 100% means that all of the beetle larvae have been killed; 0% means that none of the beetle larvae have been killed.

Data set [3] has as its system greenhouse red spider mite (Tetranychus urticae). Description: Tetranychus urticae spray test, OP-resistant (TETRUR), bean leaf discs. Conditions: for efficacy compared to similar compounds of the prior art: TETRUR spray test, leaf discs; for inhibition at 100 g/ha / inhibition at 500 g/ha: Tetranychus urticae, foliar, 144 h, read-out: % Activity. It counts as in vivo. The method, then:
Tetranychus urticae—Spray Test; OP-resistant (TETRUR)
as §1, §2
Discs of bean leaves (Phaseolus vulgaris) which are infested by all stages of the greenhouse red spider mite (Tetranychus urticae) are sprayed with an active compound preparation of the desired concentration.
After the desired period of time, the effect in % is determined. 100% means that all of the spider mites have been killed; 0% means that none of the spider mites have been killed.

A short description of data set [4]: logP determination by HPLC on a reversed-phase column (C18), EEC Directive 79/831 Annex V.A8. The data set is classed as physicochemical. To be noted: HPLC-MS, C18, acetonitrile (0.1% formic acid)/water (0.09% formic acid) gradient, read-out: log P. As for the experimental part: HPLC-MS^a): mass (m/z)=462 […]. ^a) Note regarding the determination of the logP values and mass detection: The determination of the given logP values was carried out in accordance with EEC Directive 79/831 Annex V.A8 by HPLC (High Performance Liquid Chromatography) on a reversed-phase column (C18). Agilent 1100 LC system; 50*4.6 Zorbax Eclipse Plus C18 1.8 micron; mobile phase A: acetonitrile (0.1% formic acid); mobile phase B: water (0.09% formic acid); linear gradient from 10% acetonitrile to 95% acetonitrile in 4.25 min, then 95% acetonitrile for a further 1.25 min; oven temperature 55° C.; flow rate: 2.0 ml/min Mass detection is via an Agilent MSD system.
The calibration is carried out using unbranched alkan-2-ones (having 3 to 16 carbon atoms) with known logP values (determination of the logP values by the retention times using linear interpolation between two successive alkanones). The lambda-maX values were determined in the maxima of the chromatographic signals using the UV spectra from 200 nm to 400 nm.

As to `CC(=O)NCc1cc(NC(=O)c2c(Cl)c(C(F)(F)F)nn2C)ccc1F` [Example 937], the “efficacy compared to similar compounds of the prior art” value (“efficacy compared to similar compounds” below) in data set [1] is “superior efficacy”. The inhibition at 100 g/ha in data set [1] (MYZUPE, 100 g/ha, 6 dat) was found to be 90%.

As to `Cn1nc(C(F)(F)C(F)(F)F)c(Br)c1C(=O)Nc1ccc(F)c(CNC(=O)C2CC2)c1` [Example 933], the “efficacy compared to similar compounds” value in data set [2] and in data set [3] was “superior efficacy” each time. Also, the inhibition at 20 g/ha in data set [2] (PHAECO, 20 g/ha, 7 dat) is 100%. Besides, the inhibition at 100 g/ha in data set [3] (TETRUR, 100 g/ha, 6 dat) was found to be 90%.

Regarding `CCC(=O)NCc1cc(N(CC)C(=O)c2c(C(F)(F)F)c(C(F)(F)C(F)(F)F)nn2C)ccc1F` [Example 3], the “efficacy compared to similar compounds” value in data set [1], in data set [2] and in data set [3] was “superior efficacy” in each case. The inhibition at 20 g/ha came out at 100% in data set [1] (MYZUPE, 20 g/ha, 6 dat) and 100% in data set [2] (PHAECO, 20 g/ha, 7 dat). The inhibition at 500 g/ha in data set [3] (TETRUR, 500 g/ha, 6 dat) came to 100%.

`CCC(=O)NCc1cc(NC(=O)c2c(C(F)(F)F)c(C(F)(F)C(F)(F)F)nn2C)ccc1F` [Example 4]: the “efficacy compared to similar compounds” value in data set [1], in data set [2] and in data set [3] was “superior efficacy” each time. The inhibition at 500 g/ha in data set [1] (MYZUPE, 6 dat) is 100%; in data set [3] (TETRUR, 500 g/ha, 6 dat), 100%. For the same compound, in data set [2] (PHAECO, 20 g/ha, 7 dat), the inhibition at 20 g/ha was found to be 100%.

For the compound `Cn1nc(C(F)(F)C(F)(F)F)c([N+](=O)[O-])c1C(=O)O` [1-Methyl-4-nitro-3-(pentafluoroethyl)-1H-pyrazole-5-carboxylic acid], the chromatographic logP in data set [4] came out at 1.41.

`CC(=O)NCc1c(F)ccc(NC(=O)c2c(C(F)(F)F)c(C(F)(F)C(F)(F)F)nn2C)c1F` [Example 11]: in data set [2] (PHAECO, 7 dat), the inhibition at 100 g/ha worked out at 100%. Besides, in data set [3] (TETRUR, 500 g/ha, 6 dat), the inhibition at 500 g/ha was 90%.

Regarding `Cn1nc(C(F)(F)C(F)(F)F)c(C(F)(F)F)c1C(=O)Nc1cccc(C(=O)NC2CC2)c1` [Example Ik-13, reference compound], the inhibition at 500 g/ha in data set [1] (MYZUPE, 6 dat) was 0%; in data set [3] (TETRUR, 500 g/ha, 6 dat) it was 0%.

As for `CCC(=O)NC(C)c1cc(NC(=O)c2c(C(F)(F)F)c(C(F)(F)C(F)(F)F)nn2C)ccc1Cl` (stereo not drawn) [Am-28, N-{4-chloro-3-[1-(propionylamino)ethyl]phenyl}-1-methyl-3-(pentafluoroethyl)-4-(trifluoromethyl)-1H-pyrazole-5-carboxamide], in data set [4], the chromatographic logP came out at 3.55.

As for `CCC(=O)NCc1cc(N(C)C(=O)c2c(C(F)(F)F)c(C(F)(F)C(F)(F)F)nn2C)ccc1F` [Example 1], the inhibition at 20 g/ha is 90% in data set [1] and 100% in data set [2]. Also, the inhibition at 500 g/ha in data set [3] was found to be 100%.

For the compound `CN(C(=O)c1c(C(F)(F)F)c(C(F)(F)C(F)(F)F)nn1C)c1ccc(Cl)c(C(=O)NC2CC2)c1` [Example Ik-132, reference compound], in data set [1] (MYZUPE, 100 g/ha, 6 dat), the inhibition at 100 g/ha was determined as 0%.

Take `CCCNC(=O)c1cc(NC(=O)c2c(C(F)(F)F)c(C(F)(F)C(F)(F)F)nn2C)ccc1Cl` [Example Ik-30, reference compound]: in data set [1] (MYZUPE, 20 g/ha, 6 dat), the inhibition at 20 g/ha was determined as 0%.

As to `Cn1nc(C(F)(F)F)c(C(F)(F)F)c1C(=O)Nc1ccc(Cl)c(C(=O)NC2CC2)c1` [Example Ik-195, reference compound], in data set [1] (MYZUPE, 20 g/ha, 6 dat), the inhibition at 20 g/ha was determined as 0%.

In the case of `CCCC(=O)NCc1cc(NC(=O)c2c(C(F)(F)F)c(C(F)(F)C(F)(F)F)nn2C)ccc1Cl` [Am-41, N-{3-[(butyrylamino)methyl]-4-chlorophenyl}-1-methyl-3-(pentafluoroethyl)-4-(trifluoromethyl)-1H-pyrazole-5-carboxamide], in data set [4], the chromatographic logP turned out to be 3.7.

`CC(C)NC(=O)c1cc(NC(=O)c2c(Br)c(C(F)(F)C(F)(F)F)nn2C)ccc1Cl` [Example Ik-27, reference compound]: in data set [3] (TETRUR, 100 g/ha, 6 dat), the inhibition at 100 g/ha was determined as 0%.

With `Cn1nc(C(F)(F)F)c(C(F)(F)F)c1C(=O)Nc1ccc(F)c(CNC(=O)C2CC2)c1` [Example 298], the “efficacy compared to similar compounds” value in data set [1] is listed as “superior efficacy”. The inhibition at 20 g/ha in data set [1] (MYZUPE, 20 g/ha, 6 dat) came out at 90%.

For `CCN(C(=O)c1c(C(F)(F)F)c(C(F)(F)C(F)(F)F)nn1C)c1ccc(F)c(CNC(=O)C2CC2)c1` [Example 2], in data set [1], the “efficacy compared to similar compounds” value is listed as “superior efficacy” and the inhibition at 100 g/ha worked out at 90%. In data set [3], the “efficacy compared to similar compounds” value was “superior efficacy” and the inhibition at 100 g/ha turned out to be 100%.

Take `CN(C(=O)c1c(C(F)(F)F)c(C(F)(F)C(F)(F)F)nn1C)c1cccc(CNC(=O)C2CC2)c1` [Example 10]: in data set [1] (MYZUPE, 100 g/ha, 6 dat), the inhibition at 100 g/ha is 100%. The inhibition at 500 g/ha in data set [3] (TETRUR, 500 g/ha, 6 dat) worked out at 100%.

With `Cn1nc(C(F)(F)C(F)(F)F)c(Br)c1C(=O)Nc1ccc(Cl)c(C(=O)NC2CC2)c1` [Example Ik-26, reference compound], the inhibition at 20 g/ha in data set [2] (PHAECO, 20 g/ha, 7 dat) stood at 0%. The inhibition at 100 g/ha in data set [3] (TETRUR, 100 g/ha, 6 dat) was found to be 0%.

In the case of `CCC(=O)NCc1cc(NC(=O)c2c(C(F)(F)F)c(C(F)(F)F)nn2C)ccc1F` [Example 201], the “efficacy compared to similar compounds” value in data set [1] and in data set [3] was “superior efficacy” throughout. In addition, in data set [1] (MYZUPE, 20 g/ha, 6 dat), the inhibition at 20 g/ha was found to be 100%. Moreover, in data set [3] (TETRUR, 100 g/ha, 6 dat), the inhibition at 100 g/ha amounted to 100%.

For the compound `CC(=O)NCc1c(F)ccc(N(C)C(=O)c2c(C(F)(F)F)c(C(F)(F)C(F)(F)F)nn2C)c1F` [Example 7, N-[3-(acetamidomethyl)-2,4-difluorophenyl]-N,1-dimethyl-3-(pentafluoroethyl)-4-(trifluoromethyl)-1H-pyrazole-5-carboxamide], the chromatographic logP in data set [4] is 2.85. The inhibition at 500 g/ha in data set [1] (MYZUPE, 6 dat) was determined as 100%; in data set [3] (TETRUR, 500 g/ha, 6 dat) it was 100%. Moreover, the inhibition at 100 g/ha in data set [2] (PHAECO, 7 dat) turned out to be 100%.

`Cn1nc(C(F)(F)C(F)(F)F)c(C(F)(F)F)c1C(=O)Nc1ccc(F)c(C(=O)NC2CC2)c1` [Example Ik-155, reference compound]: the inhibition at 100 g/ha worked out at 0% in data set [1] (MYZUPE, 100 g/ha, 6 dat) and 0% in data set [3] (TETRUR, 100 g/ha, 6 dat).

Take `CC(=O)NCc1cc(N(C)C(=O)c2c(C(F)(F)F)c(C(F)(F)C(F)(F)F)nn2C)ccc1F` [Example 8]: the inhibition at 500 g/ha in data set [1] (MYZUPE, 6 dat) worked out at 100%; in data set [3] (TETRUR, 500 g/ha, 6 dat) it was 100%.

For `CC(C)NC(=O)c1cc(NC(=O)c2c(C(F)(F)F)c(C(F)(F)C(F)(F)F)nn2C)ccc1F` [Example Ik-75, reference compound], the inhibition at 100 g/ha in data set [1] (MYZUPE, 100 g/ha, 6 dat) was found to be 0%; in data set [3] (TETRUR, 100 g/ha, 6 dat) it was 0%. Further, the inhibition at 500 g/ha in data set [1] (MYZUPE, 6 dat) was 0%; in data set [3] (TETRUR, 500 g/ha, 6 dat), 0%. The inhibition at 20 g/ha in data set [2] (PHAECO, 20 g/ha, 7 dat) is 0%.

Turning to `CCN(C(=O)c1c(C(F)(F)F)c(C(F)(F)C(F)(F)F)nn1C)c1ccc(F)c(CNC(C)=O)c1` [Example 9], the “efficacy compared to similar compounds” value in data set [1] and in data set [3] was “superior efficacy” each time. Also, in data set [1] (MYZUPE, 20 g/ha, 6 dat), the inhibition at 20 g/ha stood at 100%. In addition, the inhibition at 500 g/ha in data set [3] (TETRUR, 500 g/ha, 6 dat) was 100%.

Consider `CC(=O)NCc1cc(NC(=O)c2c(Br)c(C(F)(F)C(F)(F)F)nn2C)ccc1F` [Example 926], for which the “efficacy compared to similar compounds” value in data set [3] is “superior efficacy”. Further, the inhibition at 100 g/ha in data set [3] (TETRUR, 100 g/ha, 6 dat) is 90%.

For the compound `Cn1nc(C(F)(F)F)c(Cl)c1C(=O)Nc1ccc(Cl)c(C(=O)NC2CC2)c1` [Example Ik-18, reference compound], the inhibition at 100 g/ha in data set [1] (MYZUPE, 100 g/ha, 6 dat) was found to be 0%.
